According to US9173935B2, “Phospholipid drug analogs” (Telormedix SA, priority 2010, dated 2015):
Where “and” joins values, the source holds several entries; their conditions need not be identical. Identical values can stand only once. Like-named read-outs stand apart in the source and are kept apart here.

How the values were obtained:
[1] = Serum exposure after intravesical chronic treatment
Description: Serum samples were taken at time points: day 0, 2 hours, day 1, 24 hours, and day 6, 2 hours.
The plate was shaken for 10 minutes and filtered under vacuum (5-10 mm Hg). […] The plate was shaken for 10 minutes and filtered under vacuum (5-10 mm Hg). Samples were evaporated and re-suspended in 70 microliters of acetonitrile/methanol 1:1. […] Column: Acquity BEH C18 50×2.1 mm 1.7 micrometers; injection volume 5 microliters, T column 50° C. […] Column: Acquity BEH C8 50×2.1 mm 1.7 micrometers injection. volume 10 microliters, T column 50° C.

CYP2C9 = CYP2C9 (Homo sapiens (Human), UniProt P11712); assay: Fluorescent High Throughput P450 assay, CYP2C9; type: biochemical; settings: substrate MFC; read-out: CYP2C9 IC50 (Mean ± S.D.)
Sequence of CYP2C9 (P11712 whole entry, looked up): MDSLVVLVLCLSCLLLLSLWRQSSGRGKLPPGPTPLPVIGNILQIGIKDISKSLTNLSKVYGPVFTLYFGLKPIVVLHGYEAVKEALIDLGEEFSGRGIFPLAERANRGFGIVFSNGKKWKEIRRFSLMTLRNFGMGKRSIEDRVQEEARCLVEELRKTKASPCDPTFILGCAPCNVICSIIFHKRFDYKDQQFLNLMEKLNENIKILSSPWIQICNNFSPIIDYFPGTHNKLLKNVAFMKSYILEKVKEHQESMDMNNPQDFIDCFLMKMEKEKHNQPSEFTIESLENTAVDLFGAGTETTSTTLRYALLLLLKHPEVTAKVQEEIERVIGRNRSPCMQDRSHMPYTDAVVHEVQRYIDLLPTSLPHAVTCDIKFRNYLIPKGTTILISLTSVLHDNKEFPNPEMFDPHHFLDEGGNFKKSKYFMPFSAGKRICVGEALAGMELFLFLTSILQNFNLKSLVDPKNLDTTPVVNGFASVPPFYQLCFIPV
Description: (§1) Inhibition of the P450 isoforms was measured in specific assays using specific substrates that become fluorescent upon CYP metabolism. Compounds, dissolved in ACN (acetonitrile) (CYP2E1, CYP2C8, CYP2B6, CYP3A5) or DMSO (all remaining isoforms), were tested in duplicate (n=2) in concentration-response curves (eight concentrations) in a 96-well plate containing incubation/NADPH regenerating buffer. Specific isoenzymes and substrates were added and incubated at 37° C. Reactions were terminated at different times, depending on the assays, and plates read on a Fluoroskan Ascent at the appropriate emission/excitation wavelengths. Concentration-response curves performed in duplicate for known inhibitors for each isoenzyme were tested in every assay as positive control.

[2] = tested on: AY-27 rat bladder cancer cell-line; settings: in vivo
PBMCs = assay: IL-6 and TNF-alpha secretion in PBMCs from three donors (ELISA); type: cell-based, human
Description: EC50 values were determined for control and each drug candidate for IL-6 and TNF-alpha secretion. […] The cells were treated with TLR7 agonists for 24 hours in 7 doses. The conditioned media was removed for ELISA analyses for IL-6 and TNF-alpha, and cell survival determined by the XTT method according to the protocol from the supplier. […] Concentrations of IL-6 and TNF-alpha were determined by ELISA from R&D Systems using the Microsoft Excel Software. The results were analyzed in Graph Pad Prism in order to prepare dose-response curves, and for determination of EC50 values.

CYP2E1 = CYP2E1 (Homo sapiens (Human), UniProt P05181); assay: Fluorescent High Throughput P450 assay, CYP2E1; type: biochemical; settings: substrate MFC; read-out: CYP2E1 IC50 (Mean ± S.D.)
Sequence of CYP2E1 (P05181 whole entry, looked up): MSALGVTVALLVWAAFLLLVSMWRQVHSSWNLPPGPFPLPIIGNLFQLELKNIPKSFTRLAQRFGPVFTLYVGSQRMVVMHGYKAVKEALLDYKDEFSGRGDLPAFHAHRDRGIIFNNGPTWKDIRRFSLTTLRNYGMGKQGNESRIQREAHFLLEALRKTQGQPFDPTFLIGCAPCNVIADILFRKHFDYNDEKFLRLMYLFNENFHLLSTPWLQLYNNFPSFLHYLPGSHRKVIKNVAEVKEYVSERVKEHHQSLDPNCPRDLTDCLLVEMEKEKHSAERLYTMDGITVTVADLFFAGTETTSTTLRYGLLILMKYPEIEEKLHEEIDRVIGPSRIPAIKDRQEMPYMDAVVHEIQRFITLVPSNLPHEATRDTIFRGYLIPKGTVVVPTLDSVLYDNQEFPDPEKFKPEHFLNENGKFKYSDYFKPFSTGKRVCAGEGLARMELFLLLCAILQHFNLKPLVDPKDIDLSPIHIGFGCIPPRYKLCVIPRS
Description: as §1

[3] = tested on: recombinant protein antigens from Plasmodium falciparum and Mycobacterium ulcerans; assay: Pilot immunization study with adjuvanted protein antigens; type: in vivo, mice; settings: three s.c. immunizations
Description: A pilot immunization study was conducted using Compound A and SC12 adjuvanted protein antigens. The immunization experiments were performed with two recombinant proteins expressed in E. coli. One antigen was derived from the malaria parasite Plasmodium falciparum and the other one from Mycobacterium ulcerans, which cause the ulcerative skin disease Buruli ulcer.

CYP1A2 = CYP1A2 (Homo sapiens (Human), UniProt P05177); assay: Fluorescent High Throughput P450 assay, CYP1A2; type: biochemical; settings: substrate CEC; read-out: CYP1A2 IC50 (Mean ± S.D.)
Sequence of CYP1A2 (P05177 whole entry, looked up): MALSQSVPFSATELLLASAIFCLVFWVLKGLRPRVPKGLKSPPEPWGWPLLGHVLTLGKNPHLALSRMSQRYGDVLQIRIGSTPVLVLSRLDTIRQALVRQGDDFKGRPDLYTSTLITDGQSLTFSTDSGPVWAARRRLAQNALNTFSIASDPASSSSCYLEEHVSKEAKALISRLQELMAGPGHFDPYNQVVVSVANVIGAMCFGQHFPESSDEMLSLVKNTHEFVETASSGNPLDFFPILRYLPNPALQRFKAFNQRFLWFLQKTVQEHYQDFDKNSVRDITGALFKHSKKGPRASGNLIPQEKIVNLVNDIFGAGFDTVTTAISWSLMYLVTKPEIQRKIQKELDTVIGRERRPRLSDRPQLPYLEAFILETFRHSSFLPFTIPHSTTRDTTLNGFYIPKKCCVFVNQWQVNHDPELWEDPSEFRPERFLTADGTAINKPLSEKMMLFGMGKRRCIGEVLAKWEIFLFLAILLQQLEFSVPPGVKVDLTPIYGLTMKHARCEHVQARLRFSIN
Description: as §1

RAW.264 cells = assay: Intracellular uptake in RAW.264 cells (LC-MS); type: cell-based; settings: 10 microM
Description: 5×10^6 RAW.264 cells were adhered overnight in 10 cm tissue culture dishes. […] […] Supernatant (2 ml) and cells (pellets) were collected by trypsinization and frozen at […] for subsequent analysis by LC-MS.

[4] = tested on: Raw264.7 mouse macrophage cell line; assay: IL-6 and TNF-alpha secretion in Raw264.7 cells (ELISA); type: cell-based; settings: 24 hours treatment, 7 doses
Description: EC50 values were determined for control and each drug candidate for IL-6 and TNF-alpha secretion. […] The cells were plated in 96 well plates and treated with TLR7 agonists for 24 hours in 7 doses. The conditioned media was removed after 24 hours for ELISA analyses. The cells were subsequently assayed for viability using the XTT assay according to the guidelines from the supplier. […] The experiment was performed in quadruplicate wells for each testing series, and the supernatant pooled and measured by ELISA in triplicates. Concentrations of IL-6 and TNF-alpha were determined by ELISA from R&D Systems using the Microsoft Excel Software. The results were analyzed in Graph Pad Prism in order to prepare dose-response curves, and for determination of EC50 values.

[5] = tested on: HLA-DR+/CD11c-/CD123+ pDCs; assay: FACS analysis of plasmacytoid DC activation in whole blood; type: cell-based, human; settings: 24 hours, 0.1 and 0.5 uM, three donors
Description: A flow cytometric analysis was performed on whole blood from three donors after treatment with two compound concentrations for 24 h. The FACS analysis for donor 1 and donor 2 was made on another day than donor 3. The compound concentrations were as follows:
The FACS analysis was used to identify whether the test compounds could induce activation of B cells, and two different subsets of dendritic cells, namely the myeloid CD11c+/CD123− DCs and the plasmacytoid CD11c−/CD123+ DCs. The following markers were studied to identify the activation status of the different subsets:
The FACS staining was performed according to the manufacturer's instructions. Lysis of red blood cells was performed before FACS staining in order to minimize auto-florescence. To include as many B cells and DCs in the study as possible the FACS analyses were performed on 500,000 cells in total for each staining. A P1 gate was set only to include relevant cells on FSC vs. SSC (see FIGS. 12-15). The results of the individual analysis were present as Mean Fluorescence Intensity
The analysis of pDCs was based on HLA-DR+/CD11c−/CD123+ cells, thus all analyzed cells were included in the HLA-DR+ (P3) gate and CD11c−/CD123+(Q1) gate. (FIGS. 13-15).

[6] = tested on: Cutaneous Squamous Cell Carcinoma cell lines SCL-I, SCL-II, SCC-12, SCC-13; assay: Direct proapoptotic and cytotoxic effects on SCC cells (real-time cell analysis, microscopy); type: cell-based, human
Description: SCC cells are grown under standard conditions (10% FBS).
Time and dose dependency of effects on total cell numbers have been investigated by real-time cell analysis, which is based on continuous monitoring of electric conductance in microtiter wells (E-plates, Roche), which corresponds to the cell numbers. […] For these assays 4 cell lines should be used to obtain a representative overview on the effects on SCC cells.

[7] = Day 1, 24 hours, LLOQ 0.5 ng/ml SC12, 2.5 ng/ml Imiquimod
[8] = Day 6, 2 hours, LLOQ 0.5 ng/ml SC12, 2.5 ng/ml Imiquimod

With CCCCCCCCCCCC(=O)OCC(COP(=O)(O)OCCNC(=O)c1ccc(Cn2c(=O)[nH]c3c(N)nc(OCCOC)nc32)cc1)OC(=O)CCCCCCCCCCC (centres unmarked) [SC12] the “Levels in serum, Mean ± S.D.” value ([1]; Day 0, 2 hours) was 0.5 ± 0.5 ng/mL, the “Levels in serum, individual mice” value ([1]; Day 0, 2 hours, intravesical Imiquimod 208 nmol or SC12 206.5 nmol, LLOQ 0.5 ng/ml SC12, 2.5 ng/ml Imiquimod) was “<LLOQ (2×) and 1.0 ng/ml and 0.5 ng/ml” and the “Levels in serum, Mean ± S.D.” value [1, 7] was “<LLOQ”. For the same compound, the “Levels in serum, individual mice” value [1, 7] was “<LLOQ”, the “Levels in serum, Mean ± S.D.” value [1, 8] was “<LLOQ” and the “Levels in serum, individual mice” value [1, 8] was “<LLOQ”. For the same compound, the IC50 (CYP2C9) was 33400 ± 300 nM, the Signs of toxicity [2] was “No signs of toxicity” and the EC50 (PBMCs; D1, first experiments on three donors, read-out: EC50 values, IL-6 secretion) was 1440 nM. For the same compound, the EC50 (PBMCs; D2, first experiments on three donors, read-out: EC50 values, IL-6 secretion) was 864 nM, the EC50 (PBMCs; D3, first experiments on three donors, read-out: EC50 values, IL-6 secretion) was 2780 nM and the EC50 (PBMCs; Donor 1, 24 hours, read-out: IL-6 secretion MC50) was 1440 nM. The EC50 (PBMCs; Donor 1, 24 hours, read-out: TNFa secretion MC50) was 995 nM, the EC50 (PBMCs; Donor 2, 24 hours, read-out: IL-6 secretion MC50) was 864 nM and the EC50 (PBMCs; Donor 2, 24 hours, read-out: TNFa secretion MC50) was 275 nM. For the same compound, the EC50 (PBMCs; Donor 3, 24 hours, read-out: IL-6 secretion MC50) was 2780 nM, the EC50 (PBMCs; Donor 3, 24 hours, read-out: TNFa secretion MC50) was 121 nM and the EC50 (PBMCs; average of three donors, read-out: IL-6 secretion Average EC50) was 1700 nM. For the same compound, the EC50 (PBMCs; average of three donors, read-out: TNFa secretion Average EC50) was 464 nM, the IC50 (CYP2E1) was 9200 ± 100 nM and the “Local side effects (swelling, ulcerations)” value ([3]; 10 nMol adjuvant) was “No local side effects”. For the same compound, the “IgG responses against target antigens” value ([3]; 20 micrograms antigen with 10 nMol adjuvant) was “all 20 immunized mice had developed IgG responses”, the IC50 (CYP1A2) was greater than 100000 nM and the “Intracellular Concentration” value (RAW.264 cells; incubation 1 hours) was 18.5 % of total. The “Intracellular Concentration” value (RAW.264 cells; incubation 6 hours) was 20.6 % of total, the “Intracellular Concentration” value (RAW.264 cells; incubation 18 hours) was 21.4 % of total and the EC50 ([4]; read-out: EC 50 IL 6) was 42 nM. The EC50 ([4]; read-out: EC 50 TNF-alpha) was 41 nM, the “CD80 expression on pDCs” value [5] was “induces a slightly higher CD80 expression than compound A” and the “CD86 expression on pDCs” value [5] was “tendency to induce higher CD86 expression than compound A”. For the same compound, the “Cell numbers (electric conductance, real-time cell analysis)” value ([6]; 4 cutaneous SCC cell lines, versus untreated control) was “reduced cell numbers” and the “Morphology and proliferation (microscopy)” value ([6]; day 3, 120 microM) was “cell detachment, morphological changes and inhibition of proliferation”.
